ChEMBL document CHEMBL1201862, “PubChem BioAssay data set” (2004)
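Briefly, cells in 96-well plates were exposed to five compound concentrations for 48 h, and endpoints were estimated by linear interpolation. At the GI50, growth is halved.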 Calls of active or inactive are those of the source. No stated cut-off is given here; in the data, active = GI50 up to about 1.1 µM and inactive = higher.

How the values were obtained:
Test in all cases: NCI anticancer screen, dose series, 48 h
[1] = test system: HOP-62
[2] = test system: NCI/ADR-RES
[3] = test system: TK-10
[4] = test system: UACC-257
[5] = test system: HCT-116
[6] = test system: OVCAR-3
[7] = test system: SR
[8] = test system: COLO 205
[9] = test system: OVCAR-5
[10] = test system: UO-31
[11] = test system: SF-539
[12] = test system: SNB-75
[13] = test system: K562
[14] = test system: HCC 2998
[15] = test system: IGROV-1
[16] = test system: NCI-H460
[17] = test system: OVCAR-4
[18] = test system: NCI-H23
[19] = test system: SK-MEL-5
[20] = test system: RPMI-8226

Measured: GI50

COC(=O)[C@@H]1CN(C(=O)CCc2ccccc2)C(=O)N1C(=O)OCc1ccccc1
inactive: [1] > 100 µM | [2] > 100 µM | [3] > 100 µM | [4] > 100 µM | [5] > 100 µM | [6] > 100 µM | [7] > 100 µM | [8] > 100 µM | [9] > 100 µM | [10] > 100 µM | [11] > 100 µM | [12] > 100 µM | [13] > 100 µM | [14] > 100 µM | [15] > 100 µM | [16] 59.4 µM | [17] > 100 µM | [18] > 100 µM | [19] > 100 µM | [20] > 100 µM

Sc1nc(S)nc(Oc2ccc(Cl)c(Cl)c2)n1
inactive: [1] 40 µM | [2] 38 µM | [3] > 66.1 µM | [4] 43.7 µM | [5] 30.6 µM | [6] 29.6 µM | [7] 30.1 µM | [8] > 42.3 µM | [9] 59.2 µM | [10] 24.6 µM | [11] > 44.8 µM | [12] 30.3 µM | [13] 16.5 µM | [14] 17.8 µM | [15] > 56.1 µM | [16] 25.5 µM | [17] 41.1 µM | [18] 27.2 µM | [19] 24.5 µM | [20] 9.95 µM

O=[N+]([O-])c1ccc(C(O)(C#CCN2CCCC2)c2ccccc2)cc1 (stereo not given)
inactive: [1] 92.5 µM | [2] 69.5 µM | [3] 52.1 µM | [4] 25.6 µM | [5] 46.6 µM | [6] 49 µM | [7] 23.7 µM | [8] 18 µM | [9] 57.9 µM | [10] 26.1 µM | [11] 82 µM | [12] 30.1 µM | [13] 19.7 µM | [14] 16.2 µM | [15] 25.8 µM | [16] 56.2 µM | [17] 31.5 µM | [18] 96.8 µM | [19] 21 µM | [20] 26.7 µM

COC(=O)C(Cc1c[nH]c2ccccc12)NC1=Nc2ccncc2S(=O)(=O)N1c1ccccc1 (stereo not given)
inactive: [1] 67.3 µM | [2] 33 µM | [3] > 100 µM | [4] 50.1 µM | [5] 27.1 µM | [6] 34.2 µM | [7] 20.2 µM | [8] 17.6 µM | [9] 41 µM | [10] 32.6 µM | [11] 17.1 µM | [12] 20.7 µM | [13] 20.5 µM | [14] 27.5 µM | [15] 31 µM | [16] 98.2 µM | [17] 24.7 µM | [18] 41.5 µM | [19] 16 µM | [20] 13.1 µM

O=NN1CCCS1(=O)=O
inactive: [1] > 100 µM | [2] > 100 µM | [3] > 100 µM | [4] > 100 µM | [5] > 100 µM | [6] > 100 µM | [7] > 100 µM | [8] > 100 µM | [9] > 100 µM | [10] 95.1 µM | [11] > 100 µM | [12] 12.6 µM | [13] > 100 µM | [14] > 100 µM | [15] > 100 µM | [16] > 100 µM | [17] > 100 µM | [18] > 100 µM | [19] > 100 µM | [20] > 100 µM

CO/N=C(\C(=O)O/C(=N/C1CCCCC1)NC1CCCCC1)c1csc(NC(c2ccccc2)(c2ccccc2)c2ccccc2)n1
inactive: [1] > 10 µM | [2] > 10 µM | [3] > 10 µM | [4] > 10 µM | [5] > 10 µM | [6] > 10 µM | [7] > 10 µM | [8] > 10 µM | [9] > 10 µM | [10] > 10 µM | [11] > 10 µM | [12] > 10 µM | [13] > 10 µM | [14] > 10 µM | [15] > 10 µM | [16] > 10 µM | [17] > 10 µM | [18] > 10 µM | [19] > 10 µM | [20] > 10 µM

O=c1oc2ccccc2cc1-c1cn2ccccc2n1
inactive: [1] 3.24 µM | [2] 3.15 µM | [3] 8.02 µM | [4] 3.89 µM | [5] 10.1 µM | [6] 4.16 µM | [7] 3.85 µM | [8] 30.1 µM | [9] 21.7 µM | [10] 2.36 µM | [11] 4.17 µM | [12] 2.47 µM | [13] 10.2 µM | [14] 20.1 µM | [15] 7.05 µM | [16] 4.16 µM | [17] 4.08 µM | [18] 12.1 µM | [19] 6.18 µM | [20] 10.4 µM

CC(CC(=O)O)(CC(=O)O)C(=O)O
inactive: [1] > 100 µM | [2] > 100 µM | [3] > 100 µM | [4] > 100 µM | [5] > 100 µM | [6] > 100 µM | [7] > 100 µM | [8] > 100 µM | [9] > 100 µM | [10] > 100 µM | [11] > 100 µM | [12] > 100 µM | [13] > 100 µM | [14] > 100 µM | [15] > 100 µM | [16] > 100 µM | [17] > 100 µM | [18] > 100 µM | [19] > 100 µM | [20] > 100 µM

C#CC(O)Cc1ccc(OC)c2occc12 (stereo not given)
inactive: [1] > 100 µM | [2] > 100 µM | [3] > 100 µM | [4] > 100 µM | [5] > 100 µM | [6] > 100 µM | [7] > 100 µM | [8] > 100 µM | [9] > 100 µM | [10] > 100 µM | [11] > 100 µM | [12] 52.1 µM | [13] > 100 µM | [14] > 100 µM | [15] > 100 µM | [16] > 100 µM | [17] > 100 µM | [18] > 100 µM | [19] > 100 µM | [20] > 100 µM

CCOC(=O)c1cn2c(n1)sc1cc(Cl)ccc12
inactive: [1] 18.1 µM | [2] 19.6 µM | [3] > 100 µM | [4] 26.7 µM | [5] 3.37 µM | [6] 14.1 µM | [7] 1.55 µM | [8] 5.47 µM | [9] 15 µM | [10] 7.21 µM | [11] 5.78 µM | [12] 31 µM | [13] 2.86 µM | [14] > 100 µM | [15] 24.7 µM | [16] > 100 µM | [17] > 100 µM | [18] 62.2 µM | [19] 7.76 µM | [20] 8.41 µM
